For two substances, Km results are on record in publication PMC6458159, “Mechanisms of redundancy and specificity of the Aspergillus fumigatus Crh transglycosylases” (Nature Communications, 2019).

Broadly, the Km is the substrate concentration at which the rate is half of its maximum.

The assay has as its target T1, AfCrh5 (Aspergillus fumigatus, UniProt Q8J0P4).
T1 construct: gene crh5; GST cleaved off by PreScission, N-terminal His6 kept; E. coli BL21(DE3) pLysS
T1 sequence (Q8J0P4 22-275): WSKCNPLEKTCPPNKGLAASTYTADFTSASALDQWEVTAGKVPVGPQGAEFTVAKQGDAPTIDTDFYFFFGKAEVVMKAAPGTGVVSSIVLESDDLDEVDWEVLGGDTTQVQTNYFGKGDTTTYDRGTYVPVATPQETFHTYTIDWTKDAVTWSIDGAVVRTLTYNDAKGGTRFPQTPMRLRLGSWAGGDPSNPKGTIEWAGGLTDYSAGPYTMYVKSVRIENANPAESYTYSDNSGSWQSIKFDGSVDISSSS
The experiment in a line: fluorescent transglycosylation filter-paper assay. It is filed as biochemical. Particulars: acceptor; donor carboxymethyl-chitin; 50 mM citrate pH 4.9, 37 °C; labelled compound. From the text:
fluorescent transglycosylation filter-paper assay on AfCrh5

Turning to SR-labelled chitopentaose [CH5-SR], the Km was 3.5 ± 0.4 µM. The result for SR-labelled laminaripentaose [L5-SR] reads 12 ± 3 µM.
